Consider one compound from PMC4789591, “Involvement of Daphnia pulicaria Sir2 in regulating stress response and lifespan” (Aging (Albany NY), 2016).

The test addresses T1, Daphnia Sir2 (Daphnia pulicaria, UniProt A0A0U3BSS1).
T1 construct: full-length ORF, N-terminal FLAG tag, pcDNA3.1-, in vitro translated in rabbit reticulocyte lysate (TNT T7), not purified; calculated mass 67 kD
T1 sequence (A0A0U3BSS1 1-601): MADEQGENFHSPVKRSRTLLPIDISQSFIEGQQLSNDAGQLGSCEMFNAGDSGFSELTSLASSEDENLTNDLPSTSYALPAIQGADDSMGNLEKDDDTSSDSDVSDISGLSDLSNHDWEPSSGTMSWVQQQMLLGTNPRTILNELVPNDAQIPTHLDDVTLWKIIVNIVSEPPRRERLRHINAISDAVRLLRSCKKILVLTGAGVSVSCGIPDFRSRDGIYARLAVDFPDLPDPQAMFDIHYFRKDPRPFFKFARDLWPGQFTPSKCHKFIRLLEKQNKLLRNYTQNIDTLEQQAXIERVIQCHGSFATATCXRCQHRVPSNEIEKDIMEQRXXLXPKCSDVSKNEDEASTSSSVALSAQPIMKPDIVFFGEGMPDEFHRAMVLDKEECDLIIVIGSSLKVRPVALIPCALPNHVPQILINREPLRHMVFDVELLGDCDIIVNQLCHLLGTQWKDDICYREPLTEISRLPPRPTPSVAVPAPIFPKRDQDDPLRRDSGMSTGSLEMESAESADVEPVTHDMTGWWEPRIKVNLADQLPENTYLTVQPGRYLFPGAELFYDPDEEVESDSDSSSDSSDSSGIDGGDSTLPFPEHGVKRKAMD
Put plainly: fluorogenic acetylated-peptide deacetylase assay (Abcam ab156065). In kind it is biochemical. Conditions: in vitro translated protein in reticulocyte lysate, lysate background subtracted; inhibitor concentration not told for this test; peptidase-coupled.

Turning to `NC(=O)C1CCCc2c1[nH]c1ccc(Cl)cc21` (stereo not shown) [Ex527], the “inhibition of deacetylase activity” value is “human recombinant Sirt1 as well as Daphnia Sir2 activity is significantly diminished by the inhibitor”.
